In patent publication US20260061026A1, “COMBINATION OF INOSITOL PHOSPHORYLCERAMIDE SYNTHETASE INHIBITOR AND AMPHOTERICIN B, AND USE THEREOF” (priority 2023, published 2026):

Test system: Cryptococcus neoformans var. grubii H99
Experiment: Fungicidal efficacy (CFU survival rate) of AbA, AmB and their combination, with or without IPC
Format: cell-based
Conditions: AmB 1 μg/mL, 1 hour in YPD medium; for the combination AbA 1 μg/mL added 6 hours before AmB
Description: In this example, the antifungal activity of AbA was evaluated. Specifically, the inventors tested the activity of AbA alone and in combination with AmB against Cryptococcus. In addition, the inventors also tested the effect of purified IPC on the antifungal activity of AbA alone and in combination with AmB against Cryptococcus. The specific experimental procedures are as follows.
In this example, a total of 5 groups were set up, including AbA alone, AmB alone, AbA combined with AmB, AbA combined with AmB in the presence of 1 mg/mL IPC, and AbA combined with AmB in the presence of 10 mg/mL IPC. The fungicidal efficacy of the above 5 groups of treatments against Cryptococcus neoformans var. grubii H99 (a laboratory strain) was evaluated. The survival rate of Cryptococcus after 1 hour of treatment with AmB in YPD medium was determined by calculating the CFU ratio between AmB-treated and untreated samples. AbA and IPC were added 6 hours prior to AmB treatment as a pre-treatment. AbA was purchased from Biorigin, AmB from Inalco, and IPC was extracted from an ERG6 gene knockout H99 mutant strain defective in ergosterol biosynthesis.

## C[C@@H]1[C@H](O)[C@@H](C)/C=C/C=C/C=C/C=C/C=C/C=C/C=C/[C@H](O[C@@H]2O[C@H](C)[C@@H](O)[C@H](N)[C@@H]2O)C[C@@H]2O[C@](O)(C[C@@H](O)C[C@@H](O)[C@H](O)CC[C@@H](O)C[C@@H](O)CC(=O)O[C@H]1C)C[C@H](O)[C@H]2C(=O)O [AmB, amphotericin B]
  survival rate of Cryptococcus neoformans (CFU ratio between AmB-treated and untreated samples): 39%
